Source: patent US12064459B2, “Compositions and methods for improving skin health and for the treatment and prevention of diseases, disorders and conditions associated with pathogenic microbes” (priority 2019, dated 2024)
≈ marks a conversion by molar mass, not a printed value. Like-named read-outs stand apart in the source and are kept apart here. Where a SMILES comes first, the peptide text is derived from it.

What was measured:
[1] = tested on: DBI001; experiment: Biolog phenotype MicroArrays: components enhancing function (efficacy) against fungal or bacterial pathogens; type: cell-based; conditions: enhancing function of human-derived Janthinobacterium lividum
[2] = tested on: DB00118; experiment: Antibiotic MIC tests; type: cell-based, Janthinobacterium lividum; conditions: strain DB00118
Method: (§1) The antibiotic resistance profile and MICs tests were performed using Janthinobacterium lividum grown from cultures purified and grown in vegitone LB broth.

[3] = tested on: DB02473; experiment: Antibiotic MIC tests; type: cell-based, Janthinobacterium lividum; conditions: strain DB02473
Method: as §1

[4] = tested on: DB00121; experiment: Antibiotic MIC tests; type: cell-based, Janthinobacterium lividum; conditions: strain DB00121
Method: as §1

[5] = tested on: DB02378; experiment: Antibiotic MIC tests; type: cell-based, Janthinobacterium lividum; conditions: strain DB02378
Method: as §1

[6] = tested on: E. Coli ATCC25922; experiment: Antibiotic MIC tests; type: cell-based; conditions: Escherichia coli
[7] = Janthinobacterium lividum, read-out: MIC

Molecule	Concentration Range of Efficacy [1]	other results
CC(O)C(N)=O (racemic) [D,L-Lactamide]	0.1 to 1 mM	–
O=P(O)(O)OCC(O)CO (racemic) [D,L-α-Glycerol Phosphate]	2 to 20 mM	–
CC(O)CO (stereo not drawn) [1,2-Propanediol]	2 to 20 mM	–
Nc1ncnc2c1ncn2C1CC(O)C(CO)O1 (stereo not drawn) [2-Deoxy Adenosine]	2 to 20 mM	–
O=CC[C@H](O)[C@H](O)CO [2-Deoxy-DRibose]	1 to 5 mM	–
O=C[C@@H](O)[C@H](O[C@@H]1O[C@H](CO)[C@H](O)[C@H](O)[C@H]1O)[C@H](O)CO [3-0-β-D-Galactopyranosyl-D Arabinose]	1 to 5 mM	–
C[C@H](N)C(=O)N[C@@H](CCC(=O)O)C(=O)O [Ala-Glu] (H-Ala-Glu-OH)	0.1 to 1 mM	–
CC[C@H]1OC(=O)[C@H](C)[C@@H](O[C@H]2C[C@@](C)(OC)[C@@H](O)[C@H](C)O2)[C@H](C)[C@@H](O[C@@H]2O[C@H](C)C[C@H](N(C)C)[C@H]2O)[C@](C)(O)C[C@@H](C)CN(C)[C@H](C)[C@@H](O)[C@]1(C)O [Azithromycin]	–	MIC [2, 7]: 8 µg/mL (≈ 10.7 µM); MIC [3, 7]: 1 µg/mL (≈ 1.34 µM); MIC [4, 7]: 0.5 µg/mL (≈ 0.668 µM); MIC [5, 7]: 2 µg/mL (≈ 2.67 µM); MIC [6]: 8 µg/mL (≈ 10.7 µM)
CO/N=C(\C(=O)N[C@@H]1C(=O)N2C(C(=O)[O-])=C(C[N+]3(C)CCCC3)CS[C@H]12)c1csc(N)n1 [Cefepime]	–	MIC [2, 7]: 0.25 µg/mL (≈ 0.52 µM); MIC [6]: < 0.063 µg/mL
CO/N=C(\C(=O)N[C@@H]1C(=O)N2C(C(=O)O)=C(CSc3nc(=O)c(=O)[nH]n3C)CS[C@H]12)c1csc(N)n1 [Ceftriaxone]	–	MIC [2, 7]: 0.5 µg/mL (≈ 0.902 µM); MIC [3, 7]: 0.5 µg/mL (≈ 0.902 µM); MIC [4, 7]: 0.25 µg/mL (≈ 0.451 µM); MIC [5, 7]: 0.25 µg/mL (≈ 0.451 µM); MIC [6]: < 0.063 µg/mL
CCC[C@@H]1C[C@@H](C(=O)N[C@@H]([C@H]2O[C@H](SC)[C@H](O)[C@@H](O)[C@H]2O)[C@H](C)Cl)N(C)C1 [Clindamycin]	–	MIC [2, 7]: 32 µg/mL (≈ 75.3 µM); MIC [3, 7]: 16 µg/mL (≈ 37.6 µM); MIC [4, 7]: 16 µg/mL (≈ 37.6 µM); MIC [5, 7]: 32 µg/mL (≈ 75.3 µM); MIC [6]: < 64 µg/mL
OC[C@@H](O)C(O)[C@H](O)CO [D-Arabitol]	1 to 5 mM	–
OC[C@H]1O[C@@H](O[C@H]2[C@H](O)[C@@H](O)[C@H](O)O[C@@H]2CO)[C@H](O)[C@@H](O)[C@@H]1O [D-Cellobiose]	2 to 20 mM	–
O=C(CO)[C@@H](O)[C@H](O)[C@H](O)CO [D-Fractose]	2 to 20 mM	–
O=C(O)[C@H]1OC(O)[C@H](O)[C@@H](O)[C@@H]1O (stereo partly drawn) [D-Glucoronic Acid]	2 to 20 mM	–
N[C@@H](C(=O)O)[C@@H](O)[C@H](O)[C@H](O)CO [D-Glucosaminic Acid]	2 to 20 mM	–
O=P(O)(O)O[C@H]1O[C@H](CO)[C@@H](O)[C@H](O)[C@H]1O [D-Glucose-1-Phosphate]	2 to 20 mM	–
OC[C@H]1O[C@@](CO)(O[C@H]2O[C@H](CO)[C@@H](O)[C@H](O)[C@H]2O)[C@@H](O[C@H]2O[C@H](CO)[C@@H](O)[C@H](O)[C@H]2O)[C@@H]1O [D-Melezitose]	1 to 5 mM	–
OC[C@H]1O[C@H](OCC2O[C@@H](O)[C@H](O)[C@@H](O)[C@@H]2O)[C@H](O)[C@@H](O)[C@H]1O (stereo partly drawn) [D-Melibiose]	2 to 20 mM	–
O=C(O)[C@@H](O)[C@H](O)C(=O)O [D-Tartaric acid]	1 to 5 mM	–
OC[C@@H](O)[C@H](O)[C@H](O)[C@@H](O)CO [Dulcitol]	2 to 20 mM	–
OC[C@H](O)C(O)[C@@H](O)CO [L-Arabitol]	1 to 5 mM	–
C[C@H]1COc2c(N3CCN(C)CC3)c(F)cc3c(=O)c(C(=O)O)cn1c23 [Levofloxacin]	–	MIC [2, 7]: 0.25 µg/mL (≈ 0.692 µM); MIC [3, 7]: 0.25 µg/mL (≈ 0.692 µM); MIC [5, 7]: 0.25 µg/mL (≈ 0.692 µM); MIC [6]: 0.063 µg/mL (≈ 0.174 µM)
OC[C@@H](O)[C@@H](O[C@H]1O[C@H](CO)[C@@H](O)[C@H](O)[C@H]1O)[C@H](O)[C@@H](O)CO [Maltitol]	1 to 5 mM	–
CN(C)c1ccc(O)c2c1C[C@H]1C[C@H]3[C@H](N(C)C)C(O)=C(C(N)=O)C(=O)[C@@]3(O)C(O)=C1C2=O [Minocycline]	–	MIC [3, 7]: 0.25 µg/mL (≈ 0.546 µM); MIC [4, 7]: < 0.063 µg/mL; MIC [6]: 0.25 µg/mL (≈ 0.546 µM)
O=[N+]([O-])O [Nitrate]	0.1 to 1 mM	–
O=NO [Nitrite]	0.1 to 1 mM	–

Molecule	Concentration Range of Efficacy [1]	other results
OC[C@H]1O[C@H](OC[C@H]2OC(O)(CO)[C@@H](O)[C@@H]2O)[C@H](O)[C@@H](O)[C@@H]1O (stereo partly drawn) [Palatinose]	1 to 5 mM	–
OC[C@@]12OC[C@@H](O1)[C@@H](O)[C@@H](O)[C@@H]2O [Sedoheptulosan]	1 to 5 mM	–
OC[C@H]1O[C@H](OC[C@H]2O[C@H](OC[C@H]3O[C@H](O[C@]4(CO)O[C@H](CO)[C@@H](O)[C@@H]4O)[C@H](O)[C@@H](O)[C@@H]3O)[C@H](O)[C@@H](O)[C@H]2O)[C@H](O)[C@@H](O)[C@H]1O [Stachyose]	1 to 5 mM	–
O=C(CO)[C@@H](O[C@H]1O[C@H](CO)[C@@H](O)[C@H](O)[C@H]1O)[C@H](O)[C@H](O)CO [Turanose]	1 to 5 mM	–
NC(N)=O [Urea]	0.1 to 1 mM	–
OC[C@H]1O[C@@H]2O[C@H]3[C@H](O)[C@@H](O)[C@@H](O[C@H]4[C@H](O)[C@@H](O)[C@@H](O[C@H]5[C@H](O)[C@@H](O)[C@@H](O[C@H]6[C@H](O)[C@@H](O)[C@@H](O[C@H]7[C@H](O)[C@@H](O)[C@@H](O[C@H]8[C@H](O)[C@@H](O)[C@@H](O[C@H]9[C@H](O)[C@@H](O)[C@@H](O[C@H]1[C@H](O)[C@H]2O)O[C@@H]9CO)O[C@@H]8CO)O[C@@H]7CO)O[C@@H]6CO)O[C@@H]5CO)O[C@@H]4CO)O[C@@H]3CO [g-Cyclodextrin]	1 to 5 mM	–
OC[C@@H](O)[C@@H](O)CO [i-Erythritol]	1 to 5 mM	–
OC[C@H]1O[C@@H]2O[C@H]3[C@H](O)[C@@H](O)[C@@H](O[C@H]4[C@H](O)[C@@H](O)[C@@H](O[C@H]5[C@H](O)[C@@H](O)[C@@H](O[C@H]6[C@H](O)[C@@H](O)[C@@H](O[C@H]7[C@H](O)[C@@H](O)[C@@H](O[C@H]1[C@H](O)[C@H]2O)O[C@@H]7CO)O[C@@H]6CO)O[C@@H]5CO)O[C@@H]4CO)O[C@@H]3CO [α-Cyclodextrin]	1 to 5 mM	–
O=C1CCC(C(=O)O)O1 (stereo not drawn) [α-Hydroxy Glutaric Acid-g-Lactone]	2 to 20 mM	–
COC1OC(CO)C(O)C(O)C1O [α-Methyl-D-Galactoside]	2 to 20 mM	–
CO[C@H]1O[C@H](CO)[C@@H](O)[C@H](O)[C@H]1O [α-Methyl-D-Glucoside]	1 to 5 mM	–
COC1OC(CO)C(O)C(O)C1O [α-Methyl-D-Mannoside]	1 to 5 mM	–
OC[C@H]1O[C@@H]2O[C@H]3[C@H](O)[C@@H](O)[C@@H](O[C@H]4[C@H](O)[C@@H](O)[C@@H](O[C@H]5[C@H](O)[C@@H](O)[C@@H](O[C@H]6[C@H](O)[C@@H](O)[C@@H](O[C@H]7[C@H](O)[C@@H](O)[C@@H](O[C@H]8[C@H](O)[C@@H](O)[C@@H](O[C@H]1[C@H](O)[C@H]2O)O[C@@H]8CO)O[C@@H]7CO)O[C@@H]6CO)O[C@@H]5CO)O[C@@H]4CO)O[C@@H]3CO [β-Cyclodextrin]	1 to 5 mM	–
CO[C@@H]1O[C@H](CO)[C@@H](O)[C@H](O)[C@H]1O [β-Methyl-D-Galactoside]	1 to 5 mM	–
CO[C@@H]1O[C@H](CO)[C@@H](O)[C@H](O)[C@H]1O [β-Methyl-D-Glucoside]	2 to 20 mM	–
CO[C@@H]1O[C@H](C(=O)O)[C@@H](O)[C@H](O)[C@H]1O [β-Methyl-D-Glucuronic Acid]	1 to 5 mM	–
COC1OCC(O)C(O)C1O [β-Methyl-D-Xyloside]	1 to 5 mM	–
Chondroitin Sulfate C	1 to 5 mM	–
Glycogen	1 to 5 mM	–
Inulin	1 to 5 mM	–
Laminarin	1 to 5 mM	–
Maltotriose	2 to 20 mM	–
Mannan	1 to 5 mM	–
Neomycin	–	MIC [2]: 2 µg/mL; MIC [3]: 2 µg/mL; MIC [4]: 1 µg/mL; MIC [5]: 2 µg/mL
Pectin	1 to 5 mM	–
Tween 40	2 to 20 mM	–
dextrin	1 to 5 mM	–
